The results in this text go back to ChEMBL document CHEMBL5233261, “Recent accomplishments on the synthetic/biological facets of pharmacologically active 1H-1,2,3-triazoles” (Eur J Med Chem, 2021).

Molecules are shown by their SMILES. In brackets after ≈: the same amount, converted by molar mass.

Holding throughout (assay type): functional
Test [1] deals with Staphylococcus aureus. Kind of test: Antibacterial activity against Staphylococcus aureus ATCC 6538P strain assessed as bacterial growth inhibition.
A further test deals with Bacillus cereus. Briefly: Antibacterial activity against Bacillus cereus ATCC 11778 strain assessed as bacterial growth inhibition.
A further test relates to Escherichia coli. Briefly: Antibacterial activity against Escherichia coli ATCC 853 strain assessed as bacterial growth inhibition.
In another test the test system is Proteus vulgaris. Briefly: Antibacterial activity against Proteus vulgaris ATCC 7829 strain assessed as bacterial growth inhibition.
A further test has as its system Aspergillus fumigatus. Briefly: Antifungal activity against Aspergillus fumigatus ATCC 13073 strain assessed as […] growth inhibition.
The next test relates to Candida albicans. Kind of test: Antifungal activity against Candida albicans NRRL Y-477 strain assessed as […] growth inhibition.
The subject of test [2] is Staphylococcus aureus. Briefly: Antibacterial activity against Staphylococcus aureus ATCC 6535 strain assessed as bacterial growth inhibition incubated for 24 hrs.
The next test concerns Pseudomonas aeruginosa. Briefly: Antibacterial activity against Pseudomonas aeruginosa ATCC 27853 strain assessed as bacterial growth inhibition incubated for 24 hrs.
The test system of the next test is Enterococcus faecalis. Kind of test: Antibacterial activity against Enterococcus faecalis ATCC 29212 strain assessed as bacterial growth inhibition incubated for 24 hrs.

As for `COc1ccccc1-n1cc(COc2ccc(-c3nc(-c4ccccc4)c(-c4ccccc4)n3Cc3cn(-c4ccccc4OC)nn3)cc2)nn1`, the minimum inhibitory concentration (MIC) in the test with Staphylococcus aureus [1], in the test on Bacillus cereus, in the test with Escherichia coli, in the test with Proteus vulgaris, in the test with Aspergillus fumigatus and in the test on Candida albicans was 13.8 µM (≈ 9.46 µg/mL) each time.

With `CCOP(=O)(CCCn1cc(Cn2cnc3ccccc3c2=O)nn1)OCC`, the MIC in the test on Staphylococcus aureus [2] was determined as 0.625 µg/mL (≈ 1.54 µM).

In the case of `CCOP(=O)(CCCCn1cc(Cn2cnc3ccccc3c2=O)nn1)OCC`, in the test with Pseudomonas aeruginosa, the MIC was 0.625 µg/mL (≈ 1.49 µM).

Take `CCOP(=O)(CCn1cc(Cn2cnc3ccccc3c2=O)nn1)OCC`: the MIC with Enterococcus faecalis turned out to be 0.625 µg/mL (≈ 1.6 µM).

The term MIC denotes the lowest concentration found to suppress growth.
